From patent US7144862B2, “Orally administered peptides to ameliorate atherosclerosis” (The Regents of the University of California, priority 2000, dated 2006)
Where “and” joins values, the source holds several entries; their conditions need not be identical. Equal values may be shown once.

How the values were obtained:
[1] = tested on: LDL receptor null mice on a Western diet; experiment: Aortic root lesions, oral gavage twice daily for 6 weeks; assay type: in vivo, mouse; conditions: oral gavage twice daily for 6 weeks (2.5 mg in liposomes)
Procedure: Groups of LDL receptor null mice were placed on a Western diet and were given by oral gavage, 100 μl of saline alone (Saline), n=4 animals, or 100 μl of liposomes without D-4F (Liposomes), n=5 animals, or 2.5 mg D-4F peptide in 100 μl liposomes (D-4F in liposomes), n=6 animals, twice daily for 6 weeks. The mice were bled, and subsequently sacrificed, aortic root fixed, sectioned and the extent of Oil Red O staining in fatty streak lesions quantified.
Female LDL receptor null or apo E null mice on a C57BL/6J background were purchased from the Jackson Laboratory, Bar Harbor, Me. The LDL receptor null mice were maintained on Purina chow diet (Ralston Purina Co.) until they were 4 weeks old when they were switched to a Western diet (Teklad, Madison, Wis., diet # 88137) for 6 weeks. The apo E null mice were maintained on Purina chow diet throughout the study LDL receptor null mice received the test peptide or a vehicle control by gastric gavage twice daily for the periods indicated in the figure legends. […]
Mice were bled under anesthesia from the retro-orbital venous plexus, in accordance with protocols approved by the UCLA Animal Research Committee. Atherosclerotic lesions were measured as previously described^9.

[2] = tested on: human artery wall cell cocultures; experiment: Lipoproteins from mice given peptide by gavage tested in human artery wall cell cocultures (monocyte chemotactic activity); conditions: 4F, 100 μg by oral gavage, LDL receptor deficient mice, blood after 6 hrs
Procedure: Groups of LDL receptor-deficient mice (n=3) were administered the D-peptides or the saline vehicle by gavage. […] Blood was collected from retroorbital sinus under mild anesthesia 17 hrs later. LDL was isolated from plasma by FPLC. Cocultures of artery wall cells were incubated with medium alone (NO ADDITION), control LDL from normal subjects (LDL), LDL plus control HDL from normal subjects (+HDL). […] The cocultures were incubated for 4 hrs at 37° C. in the presence of 10% LPDS. The supernatants were then discarded, the cocultures were washed and incubated with culture medium without serum or LPDS for an additional 4 hrs. This conditioned medium was collected and analyzed for monocyte chemotactic activity. The values are mean±SD of quadruplicate cocultures.
Blood was collect after 6 hrs, plasma HDL and LDL were isolated by gel filtration (FPLC) and examined in the cocultures. […] Human LDL at 200 μg protein/ml was added to human artery wall cell cocultures together with human HDL (hHDL) at 350 μg protein/ml or mouse HDL (mHDL) at 100 μg cholesterol/ml taken from mice that received saline (Saline Rx) or L-4F (L-4F Rx) or D-4F (D-4F Rx) and monocyte chemotactic activity was determined as described herein. […] On the right, mouse LDL (mLDL) was isolated from mice receiving saline (Saline Rx) or L-4F (L4F Rx) or D-4F (D-4F Rx) and was added at 100 μg cholesterol/ml to the artery wall cell cocultures without HDL and monocyte chemotactic activity determined. Values are mean±SD) for four wells in two independent experiments.
Either saline or 2F synthesized from D amino acids or from L amino acids was instilled in the stomachs of mice by gavage (instillation in the stomach by tube). After gavage the mice were bled and their LDL isolated and added to the human artery wall cell cocultures.
The animals were bled 1.5, 3 or 6 hours later and their HDL, LDL, and VLDL/IDL isolated.
Human aortic endothelial and smooth muscle cells were isolated and cultured as previously described (Id.). Cellular oxidation of LDL in the presence and absence of HDL was determined as described (Id.). Human blood monocytes were isolated after obtaining informed consent and monocyte chemotaxis was determined as described previously^5.

[3] = Plasma total and HDL cholesterol after oral D-4F; assay type: in vivo, mouse; conditions: for Mean HDL-cholesterol / plasma total cholesterol concentration: apo E null mice
Procedure: Protein (Navab et al. (2000) J Lipid Res. 41: 1481–1494) and cholesterol (Van Lenten et al. (2001) Circulation, 103: 2283–2288) content of lipoproteins and statistical analyses were performed as described by Van Lenten et al. (2001) Circulation, 103: 2283–2288, with significance defined as P<0.05.

[4] = tested on: mice infected with Influenza A virus; assay type: in vivo, mouse; conditions: 20 micrograms daily injected after infection
[5] = tested on: human artery wall cell cocultures; experiment: LDL-induced monocyte chemotactic activity with the homologous series of peptides (Example 3); assay type: cell-based; conditions: peptide at 100 μg/ml, LDL 250 μg protein/ml, 8 h
Procedure: Microtitre plates were treated with 0.1% gelatin at 37° C. overnight. HASMC were added at a confluent density of 1×10^5 cells/cm^2. […] HAEC were subsequently added at 2×10^5 cells/cm^2 and were allowed to grow, forming a complete monolayer of confluent HAEC in two days. In all experiments, HAEC and autologous HASMC (from the same donor) were used at passage levels of four to six. […] The cocultures were treated with native LDL(250 μg protein/ml) or presence of HDL (350 μg protein/ml) or peptides for 8 h.

[6] = Right angle light scattering, dissolution of EPC MLVs; assay type: physicochemical; conditions: 105 μM EPC, equimolar peptide, 25° C., 30 min
Procedure: EPC MLVs were prepared by evaporating a solution of EPC (Avanti Polar, AL) under nitrogen and hydrating the lipid film with phosphate-buffered saline (pH 7.4). […] Turbidity clarification was monitored for 30 min.

[7] = Solubility in PBS; assay type: physicochemical; conditions: in PBS
Procedure: The peptides were purified on a preparative Vydac C4 column by reversed-phase (RP)-HPLC using water (with 0.1% trifluoroacetic acid) and acetonitrile (0.1% trifluoroacetic acid). The purity and the retention times of the peptides were determined on an analytical Vydac C18 column using a gradient of 25%-58% acetonitrile in water containing 0.1% TFA. The purity of these peptides was also confirmed by mass spectrometry. The mass was in agreement with the calculated molecular weight. Although both the 3F peptides and 4F have additional Phe residues compared to 2F, the retention times of these peptides on the C18 column are not very different (˜22 min). A sudden increase in the retention time is apparent with 5F, 6F and 7F (˜26 min). With increasing number of Phe residues, the solubility of these peptides in PBS decreases.

[8] = Non-denaturing PAGE, self-association; assay type: physicochemical; conditions: 100 and 250 μg/ml
Procedure: Non-denaturing and SDS-PAGE and was carried out using the method of Laemmli (1970) Nature 227: 680–685. Premade Novex gels were used and the gel was stained with Coomassie blue to identify the protein bands.

[9] = DSC, bilayer to hexagonal phase transition of DiPoPE; assay type: physicochemical; conditions: heating scan rate 37°/h
Procedure: (§1) A known amount of phospholipid was dissolved in chloroform. For one set of samples, peptide was dissolved in methanol and added to a solution of DiPoPE in chloroforn/methanol (2:1, v:v). For both, pure lipid samples and the organic solutions of lipid and peptide, solvent was removed under a slow stream of nitrogen. Residual solvent was removed under vacuum. […] For DMPC, four consecutive scans with a 60 minute equilibration time between scans were taken. DSC thermograms were analyzed using the software provided by MicroCal Inc., Amherst, Mass., and Origin, version 5.0.
In the current study we prepared the peptide-lipid mixtures in two ways. One was by adding the peptide in organic solvent to the lipid in organic solvent followed by depositing the material as a film and subsequently hydrating with buffer. In the other method, the peptide and lipid were mixed after each was hydrated separately. If the mixture comes to equilibrium prior to the DSC analysis, it should not matter how the peptide and lipid are originally mixed. However, membrane systems can equilibrate slowly, in which case there may be more peptide in the lipid when it was incorporated at high concentrations into the lipid film.

[10] = tested on: C57 BL6 mice; experiment: Diet-induced lesion formation with 2F; assay type: in vivo, mouse
From the text: It follows that in this mouse model, inhibition of LDL-induced monocyte chemotaxis is more anti-atherogenic than LCAT activation. Since the peptides 2F and 4F are similar in activating LCAT, and 4F and 5F are similar in removing “seeding molecules” from LDL, the peptide 4F may serve as a reagent to distinguish between the importance of LCAT activation and the inhibition of LDL-induced monocyte chemotaxis in different atherosclerosis-sensitive mouse models. If the inhibition of LDL-induced chemotaxis is more important than the LCAT-activating ability, then 4F should be better peptide to use as an inhibitor of atherosclerosis since this peptide is more soluble than the peptides 5F, 6F and 7F.

[11] = Surface pressure measurements: monolayer exclusion pressure; assay type: physicochemical; conditions: EPC monolayer; reproducibility ± 1 dyn/cm
Procedure: An insoluble monolayer of egg phosphatidylcholine (EPC) was spread at the air-water interface in a Teflon dish at room temperature to give an initial surface pressure (πi) in the range of 5–45 dyn/cm. A solution of peptides in PBS containing 1.5M Gdn. HCl was carefully injected in to the subphase to give a final concentration of 50 μg/dL. The Gdn. HCl was diluted in the subphase to a final concentration of ≦1 mM to allow the peptides to renature. The subphase was stirred continuously and the increase in EPC monolayer surface pressure (Δπ) was recorded until a steady state value was obtained. The value of the initial surface pressure (πi) at which the peptides no longer penetrate the EYPC monolayer i.e. the exclusion pressure (πe), was calculated by extrapolating the πi vs Δπ linear regression fit to Δπ=0 dyn/cm.

[12] = DSC, chain melting transition of DMPC; assay type: physicochemical; conditions: DMPC/peptide 100:1 (mol/mol)
Procedure: as §1
The effect of these 18A analogues on the chain melting transition of multilamellar vesicles of DMPC was studied by DSC using peptide-lipid mixtures at 100:1 lipid/peptide molar ratio.

[13] = Circular dichroism, percent helicity; assay type: physicochemical
Procedure: Briefly, spectra were obtained using a cell with a 0.1 cm path length and measurements were taken every nm from 260 nm to 190 nm at 25° C. All the CD spectra were signal averaged by adding four scans, base line corrected and smoothed. Peptide solutions in PBS, pH 7.4, were used at a concentration of 11 μM. Peptide-DMPC complexes (1:20 mol:mol) were used to determine the effect of lipid binding on the helicity of these peptides. These complexes were prepared by adding the appropriate volume of peptide solution to DMPC multilamellar vesicles. DMPC multilamellar vesicles were prepared as follows: A known amount of lipid was dissolved in ethanol and the solvent was removed by evaporating slowly under a thin stream of nitrogen. Residual solvent was removed by storing the lipid film under vacuum overnight. An appropriate volume of PBS, pH 7.4 was added to the thin lipid film to give the required final concentration of DMPC.

[14] = LDL receptor null mice, Western diet, gavage twice daily 6 weeks
[15] = 2.5 mg/mouse/day in drinking water
[16] = 5.0 mg/mouse/day in drinking water

Compound: CC(=O)N[C@H](CC(=O)O)C(=O)N[C@H](Cc1c[nH]c2ccccc12)C(=O)N[C@H](Cc1ccccc1)C(=O)N[C@H](CCCCN)C(=O)N[C@H](C)C(=O)N[C@H](Cc1ccccc1)C(=O)N[C@H](Cc1ccc(O)cc1)C(=O)N[C@H](CC(=O)O)C(=O)N[C@H](CCCCN)C(=O)N[C@@H](C(=O)N[C@H](C)C(=O)N[C@H](CCC(=O)O)C(=O)N[C@H](CCCCN)C(=O)N[C@H](Cc1ccccc1)C(=O)N[C@H](CCCCN)C(=O)N[C@H](CCC(=O)O)C(=O)N[C@H](C)C(=O)N[C@H](Cc1ccccc1)C(N)=O)C(C)C [Peptide D-4F, Ac-D-W-F-K-A-F-Y-D-K-V-A-E-K-F-K-E-A-F-NH2]
- reduction in atherosclerotic lesions [1]: 79% and 81%
- HDL protective capacity [2]: enhance HDL protective capacity
- LDL-induced monocyte chemotactic activity (mouse LDL) [2]: decrease LDL-induced monocyte chemotactic activity
- Total cholesterol [3, 14]: 761 ± 69 mg/dL
- mean HDL-cholesterol level [3, 14]: 73 ± 8.7 mg/dL
- Mean HDL-cholesterol [3, 15]: 38.7 ± 5 mg/dL
- plasma total cholesterol concentration [3, 15]: 534 ± 12.3 mg/dL
- Mean HDL-cholesterol [3, 16]: 43.4 ± 6 mg/dL
- plasma total cholesterol concentration [3, 16]: 579 ± 4.6 mg/dL
- biologically active oxidized phospholipids in the aorta after influenza A infection [4]: not generated beyond background
- plasma paraoxonase levels after influenza A infection [4]: did not fall

Compound: Ac-DWLKAFYDKVAEKLKEAF-NH2 [Peptide 2F, Ac-D-W-L-K-A-F-Y-D-K-V-A-E-K-L-K-E-A-F-NH2]
- inhibition of LDL-induced monocyte chemotaxis [5]: some inhibitory activity
- clarification of EPC MLVs [6]: clarified the EPC MLVs to a similar extents
- Solubility [7]: >2000 µg/mL
- solubility ([7]; read-out: Solubility): 1250 to 1400 µg/mL
- self-association on non-denaturing PAGE [8]: forms aggregates in a concentration dependent manner
- shift in TH of DiPoPE with mol fraction of peptide [9]: linear increase in TH
- mean lesion area ([10]; 2F-administered mice, n=15, PBS control 14.7±1.8): 13.2±1.7 μm^2×10^−3
- inhibition of diet-induced lesion formation ([10]; C57 BL6 mice): did not significantly inhibit diet-induced lesion formation
- Monolayer Exclusion Pressure(πc) [11]: 38 dyn/cm
- TCM(° C.) ([12]; 1.5 mM DMPC, chain melting transition temperature): 23.2 °C
- ΔHCM (kcals/mol) ([12]; enthalpy of the transition): 4.5 kcals/mol
- ΔT1/2 (° C.) ([12]; width at half maximum of the transition): 0.5 °C
- Percent Helicity PBS ([13]; 11 μM peptide in PBS): 55%
- Percent Helicity DMPC ([13]; 11 μM peptide, Peptide: DMPC 1:20 (mol/mol)): 72%
